# Target: T1, human H4 receptor (Homo sapiens, UniProt Q9H3N8)
# T1 construct: expressed in transfected cells
# Test: [3H]Histamine binding on membranes of CHO cells stably expressing human H4 receptor
# Outline: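 Nonspecific binding defined with 10 μM JNJ 7777120. Bound radioactivity collected on polyethyleneimine-treated GF/B filters and counted by liquid scintillation.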
row,Compound,Ki or IC50 activity class [nM]
1,"C#Cc1cccc(C(OC2CCN(C)CC2)c2nc3ccccc3[nH]2)c1 (stereo not shown) [Example 195, 2-[(3-ethynylphenyl)(1-methylpiperidin-4-yloxy)methyl]-1H-benzimidazole]",< 300
2,"CN1CCC(OC(c2cccc(C#N)c2)c2nc3ccccc3[nH]2)CC1 (stereo not shown) [Example 172, 3-[(1H-benzimidazol-2-yl)(1-methylpiperidin-4-yloxy)methyl]benzonitrile]",< 300
3,"CN1CCC(OC(c2cccc(CCCCNC(=N)N)c2)c2nc3ccccc3[nH]2)CC1 (stereo not shown) [Example 308, N-(4-{3-[(1H-benzimidazol-2-yl)(1-methylpiperidin-4-yloxy)methyl]phenyl}butyl)guanidine]",< 300
4,"Cc1cccc(C(NC2CCN(C)CC2)c2nc3ccccc3[nH]2)c1 (stereo not shown) [Example 84, [(1H-benzimidazol-2-yl)(m-tolyl)methyl](1-methylpiperidin-4-yl)amine]",< 1000
5,"CN1CCC(OC(c2ccc3ccccc3c2)c2nc3ccccc3s2)CC1 (stereo not shown) [Example 18, 2-[(1-methylpiperidin-4-yloxy)naphthalen-2-ylmethyl]benzothiazole]",< 300
6,Cc1cc(F)c(C(OC2CCN(C)CC2)c2nc3ccccc3o2)c(F)c1 (stereo not shown) [Example 536],< 30
7,"CN1CCC(OC(c2cccc(OCC3CCNCC3)c2)c2nc3ccccc3s2)CC1 (stereo not shown) [Example 377, 2-{(1-methylpiperidin-4-yloxy)[3-(piperidin-4-ylmethoxy)phenyl]methyl}benzothiazole]",< 300
8,"COc1cccc(C(NC2CCN(C)CC2)c2nc3ccccc3s2)c1 (stereo not shown) [Example 25, [benzothiazol-2-yl(3-methoxyphenyl)methyl](1-methylpiperidin-4-yl)amine]",< 30
9,CN1CCC(OC(c2cccc(N3CCC(O)C3)c2)c2nc3ccccc3[nH]2)CC1 (stereo not shown) [Example 452],< 300
10,"CN1CCC(OC(c2cccc(-c3cccnc3)c2)c2nc3ccccc3s2)CC1 (stereo not shown) [Example 63, 2-[(1-methylpiperidin-4-yloxy)(3-pyridin-3-ylphenyl)methyl]benzothiazole]",< 300
11,"CN1CCC(OC(c2ccc(N)cc2)c2nc3ccccc3[nH]2)CC1 (stereo not shown) [Example 455, 4-[(1H-benzimidazol-2-yl)(1-methylpiperidin-4-yloxy)methyl]aniline]",< 30
12,"CN1CCC(OC(c2nc3ccccc3[nH]2)c2cc(I)ccc2F)CC1 (stereo not shown) [Example 425, 2-[(2-fluoro-5-iodo-phenyl)(1-methylpiperidin-4-yloxy)methyl]-1H-benzimidazole]",< 30
13,"CN1CCC(OC(c2cccc(SCCc3cnccn3)c2)c2nc3ccccc3[nH]2)CC1 (stereo not shown) [Example 232, 2-{(1-methylpiperidin-4-yloxy)[3-(2-pyrazin-2-yl-ethylsulfanyl)phenyl]methyl}-1H-benzimidazole]",< 1000
14,CN1CC(COC(c2cccc(Br)c2)c2nc3ccccc3[nH]2)C1 (stereo not shown) [Example 506],< 300
15,"CN1CCC(OC(c2cccc(-c3cccnc3)c2)c2nc3ccccc3[nH]2)CC1 (stereo not shown) [Example 89, 2-[(1-methylpiperidin-4-yloxy)(3-pyridin-3-ylphenyl)methyl]-1H-benzimidazole]",< 300
16,"CN1CCC(OC(c2cccc(-c3cccc(CC#N)c3)c2)c2nc3ccccc3s2)CC1 (stereo not shown) [Example 98, {3′-[benzothiazol-2-yl(1-methylpiperidin-4-yloxy)methyl]biphenyl-3-yl}acetonitrile]",< 300

row,Compound,Ki or IC50 activity class [nM]
1,"CN1CCC(OC(c2cccc(OCCCCCNCCCCN)c2)c2nc3ccccc3[nH]2)CC1 (stereo not shown) [Example 419, N1-(5-{3-[(1H-benzimidazol-2-yl)(1-methylpiperidin-4-yloxy)methyl]phenoxy}pentyl)butane-1,4-diamine]",< 1000
2,"Cc1cc(F)cc(C(OC2CCN(C)CC2)c2nc3ccccc3s2)c1 (stereo not shown) [Example 38, 2-[(3-fluoro-5-methylphenyl)(1-methylpiperidin-4-yloxy)methyl]benzothiazole]",< 300
3,CN1CCC(OC(c2nc3ccccc3[nH]2)c2cc(C(F)(F)F)ccc2F)CC1 (stereo not shown) [Example 498],< 300
4,"CN1CCC(OC(c2cccc(N3CCC(N)C3)c2)c2nc3ccccc3s2)CC1 (stereo not shown) [Example 423, 1-{3-[benzothiazol-2-yl(1-methylpiperidin-4-yloxy)methyl]phenyl}pyrrolidin-3-ylamine]",< 300
5,c1csc(C(OC2CCNCC2)c2nc3ccccc3[nH]2)c1 (stereo not shown) [Example 544],< 1000
6,"CN1CCC(OC(c2ccsc2)c2nc3ccccc3s2)CC1 (stereo not shown) [Example 16, 2-[(1-methylpiperidin-4-yloxy)thiophen-3-ylmethyl]benzothiazole]",< 30
7,CN1CCC(OC(c2cccc(OCCF)c2)c2nc3ccccc3[nH]2)CC1 (stereo not shown) [Example 476],< 30
8,"CN1CCC(OC(c2cccc(C#CCCCNC(=N)N)c2)c2nc3ccccc3s2)CC1 (stereo not shown) [Example 340, N-(5-{3-[benzothiazol-2-yl(1-methylpiperidin-4-yloxy)methyl]phenyl}pent-4-ynyl)guanidine]",< 30
9,CN1CCC(OC(c2nc3cc(F)ccc3[nH]2)c2cc(OC(F)(F)F)ccc2F)CC1 (stereo not shown) [Example 509],< 30
10,"CN1CCC(NC(c2cccc(OCCOc3ccccc3)c2)c2nc3ccccc3[nH]2)CC1 (stereo not shown) [Example 106, {(1H-benzimidazol-2-yl)[3-(2-phenoxyethoxy)phenyl]methyl}(1-methylpiperidin-4-yl)amine]",< 300
11,"CN1CCC(NC(c2cccc(OCCF)c2)c2nc3ccccc3[nH]2)CC1 (stereo not shown) [Example 180, {(1H-benzimidazol-2-yl)[3-(2-fluoro-ethoxy)phenyl]methyl}(1-methylpiperidin-4-yl)amine]",< 30
12,"CN1CCC(OC(c2cccc(OC(F)(F)F)c2)c2nc3ccccc3[nH]2)CC1 (stereo not shown) [Example 280, 2-[(1-methylpiperidin-4-yloxy)(3-trifluoromethoxy-phenyl)methyl]-1H-benzimidazole]",< 300
13,"CN1CCC(OC(c2ccc3c(c2)OCCO3)c2nc3ccccc3s2)CC1 (stereo not shown) [Example 10, 2-[(2,3-dihydrobenzo[1,4]dioxin-6-yl)(1-methylpiperidin-4-yloxy)methyl]benzothiazole]",< 30
14,"CN1CCC(OC(c2cccc(OCc3cccc([N+](=O)[O-])c3)c2)c2nc3ccccc3s2)CC1 (stereo not shown) [Example 196, 2-{(1-methylpiperidin-4-yloxy)[3-(3-nitro-benzyloxy)phenyl]methyl}benzothiazole]",< 30
15,CN1CC(COC(c2nc3ccccc3[nH]2)c2cc(OC(F)(F)F)ccc2F)C1 (stereo not shown) [Example 516],< 300

# Results, then the compound that gave them:
row,Ki or IC50 activity class [nM],Compound
1,< 30,"CCOc1cccc(C(OC2CCN(C)CC2)c2nc3ccccc3s2)c1 (stereo not shown) [Example 47, 2-[(3-ethoxyphenyl)(1-methylpiperidin-4-yloxy)methyl]benzothiazole]"
2,< 30,"CCSc1cccc(C(OC2CCN(C)CC2)c2nc3ccccc3s2)c1 (stereo not shown) [Example 159, 2-[(3-ethylsulfanylphenyl)(1-methylpiperidin-4-yloxy)methyl]benzothiazole]"
3,< 300,"Cc1cc(C(OC2CCN(C)CC2)c2nc3ccccc3s2)ccc1F (stereo not shown) [Example 34, 2-[(4-fluoro-3-methylphenyl)(1-methylpiperidin-4-yloxy)methyl]benzothiazole]"
4,< 1000,"CN1CCC(OC(c2cccc(SCC(N)=O)c2)c2nc3ccccc3s2)CC1 (stereo not shown) [Example 263, 2-{3-[benzothiazol-2-yl(1-methylpiperidin-4-yloxy)methyl]phenylsulfanyl}acetamide]"
5,< 300,"CN1CCC(OC(c2cccc(OCCCCO)c2)c2nc3ccccc3s2)CC1 (stereo not shown) [Example 266, 4-{3-[benzothiazol-2-yl(1-methylpiperidin-4-yloxy)methyl]phenoxy}butan-1-ol]"
6,< 30,"CN1CCC(OC(c2cccc(C=CCCCO)c2)c2nc3ccccc3s2)CC1 (stereo not shown) [Example 390, 5-{3-[(benzothiazol-2-yl)(1-methylpiperidin-4-yloxy)methyl]phenyl}pent-4-en-1-ol]"
7,< 30,"CC(O)CSc1cccc(C(OC2CCN(C)CC2)c2nc3ccccc3s2)c1 (stereo not shown) [Example 255, 1-{3-[benzothiazol-2-yl(1-methylpiperidin-4-yloxy)methyl]phenylsulfanyl}propan-2-ol]"
8,< 1000,"CN1CCC(OC(c2cccc(C=CS(C)(=O)=O)c2)c2nc3ccccc3s2)CC1 (stereo not shown) [Example 212, 2-[[3-(2-methanesulfonylvinyl)phenyl](1-methylpiperidin-4-yloxy)methyl]benzothiazole]"
9,< 30,"CN1CCC(OC(c2cccc(CCCCCN)c2)c2nc3ccccc3s2)CC1 (stereo not shown) [Example 289, 5-{3-[benzothiazol-2-yl(1-methylpiperidin-4-yloxy)methyl]phenyl}pentylamine]"
10,< 30,"CCCOc1cccc(C(OC2CCN(C)CC2)c2nc3ccccc3s2)c1 (stereo not shown) [Example 26, 2-[(1-methylpiperidin-4-yloxy)(3-propoxy-phenyl)methyl]benzothiazole]"
11,< 1000,"CN1CCC(OC(c2cccc(SCC(O)CO)c2)c2nc3ccccc3[nH]2)CC1 (stereo not shown) [Example 288, 3-{3-[(1H-benzimidazol-2-yl)(1-methylpiperidin-4-yloxy)methyl]phenylsulfanyl}propane-1,2-diol]"
12,< 30,"CN1CCC(OC(c2cccc(OCCCl)c2)c2nc3ccccc3s2)CC1 (stereo not shown) [Example 354, 2-[[3-(2-Chloroethoxy)phenyl](1-methylpiperidin-4-yloxy)methyl]benzothiazole]"
13,< 30,"CN1CCC(OC(c2cccc(N3CCC(O)C3)c2)c2nc3ccccc3s2)CC1 (stereo not shown) [Example 406, 1-{3-[benzothiazol-2-yl(1-methylpiperidin-4-yloxy)methyl]phenyl}pyrrolidin-3-ol]"
14,< 30,"CN1CCC(OC(c2cccc(SCCCCN)c2)c2nc3ccccc3s2)CC1 (stereo not shown) [Example 359, 4-{3-[benzothiazol-2-yl(1-methylpiperidin-4-yloxy)methyl]phenylsulfanyl}butylamine]"
15,< 1000,CN1CCC(OC(c2cccc(N3CC(N(C)C)C3)c2)c2nc3ccccc3s2)CC1 (stereo not shown) [Example 450]
